From patent US9896435B2, “N-pyrrolidinyl,N′-pyrazolyl-urea, thiourea, guanidine and cyanoguanidine compounds as TrkA kinase inhibitors” (Array BioPharma Inc., priority 2012, dated 2018)

Assays:
Experiment in all cases: KinaseProfiler off-target kinase profiling
Type in all cases: biochemical
Conditions in all cases: 10 μM, ATP near Km
ULK3 = ULK3 (Homo sapiens (Human), UniProt Q6PHR2)
Description: (§1) Two representative compounds (Example 2, 14) of the invention were tested for off-target kinase activity at a concentration of 10 μM by Millipore, Inc. in their KinaseProfiler™ service against all the kinases available in their full kinase panel. These compounds were run in duplicate at a concentration of ATP near the Km for each individual kinase according to Millipore's specifications. The results are shown in Table B. Data are reported as percent of control (POC) and are the average of the two replicates.

KDR = KDR (Homo sapiens (Human), UniProt P35968)
Description: as §1

DDR2 = DDR2 (Homo sapiens (Human), UniProt Q16832)
Description: as §1

MST1 = MST1 (Homo sapiens (Human), UniProt Q13043)
Description: as §1

PRK2 = PRK2 (Homo sapiens (Human), UniProt Q16513)
Description: as §1

CHK1 = CHK1 (Homo sapiens (Human), UniProt O14757)
Description: as §1

Ret = Ret (Homo sapiens (Human), UniProt P07949)
Description: as §1

GRK5 = GRK5 (Homo sapiens (Human), UniProt P34947)
Chain of GRK5 (P34947 whole entry): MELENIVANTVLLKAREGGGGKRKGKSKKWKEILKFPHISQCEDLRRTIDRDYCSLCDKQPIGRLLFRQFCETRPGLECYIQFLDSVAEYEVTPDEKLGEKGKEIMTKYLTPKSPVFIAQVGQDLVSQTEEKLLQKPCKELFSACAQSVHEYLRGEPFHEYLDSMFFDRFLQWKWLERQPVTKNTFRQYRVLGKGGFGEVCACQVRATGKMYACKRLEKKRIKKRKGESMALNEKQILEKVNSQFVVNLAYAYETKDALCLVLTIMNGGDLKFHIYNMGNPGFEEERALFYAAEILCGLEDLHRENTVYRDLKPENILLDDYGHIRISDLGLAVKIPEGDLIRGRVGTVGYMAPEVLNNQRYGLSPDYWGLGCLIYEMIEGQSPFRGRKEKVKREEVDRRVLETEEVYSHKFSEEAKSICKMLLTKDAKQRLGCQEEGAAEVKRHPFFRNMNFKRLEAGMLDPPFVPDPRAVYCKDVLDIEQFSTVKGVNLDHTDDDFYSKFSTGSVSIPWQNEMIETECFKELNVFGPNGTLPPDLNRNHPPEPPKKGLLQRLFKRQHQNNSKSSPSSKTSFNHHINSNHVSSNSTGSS
Description: as §1

MKK6 = MKK6 (Homo sapiens (Human), UniProt P52564)
Chain of MKK6 (P52564 whole entry): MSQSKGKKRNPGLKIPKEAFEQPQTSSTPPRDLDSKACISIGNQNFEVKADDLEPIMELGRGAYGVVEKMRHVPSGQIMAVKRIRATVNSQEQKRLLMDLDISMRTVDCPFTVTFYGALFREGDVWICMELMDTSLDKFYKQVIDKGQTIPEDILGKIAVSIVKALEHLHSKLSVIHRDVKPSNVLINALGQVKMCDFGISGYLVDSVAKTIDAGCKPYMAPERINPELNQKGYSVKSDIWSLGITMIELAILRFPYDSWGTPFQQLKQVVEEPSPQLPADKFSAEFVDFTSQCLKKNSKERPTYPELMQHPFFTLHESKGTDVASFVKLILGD
Description: as §1

EphA2 = EphA2 (Homo sapiens (Human), UniProt P29317)
Description: as §1

PDGFRbeta = PDGFRbeta (Homo sapiens (Human), UniProt P09619)
Description: as §1

PAK2 = PAK2 (Homo sapiens (Human), UniProt Q13177)
Description: as §1

TrkA = TrkA (Homo sapiens (Human), UniProt P04629)
Description: as §1

MRCKbeta = MRCKbeta (Homo sapiens (Human), UniProt Q9Y5S2)
Description: as §1

AKT1 = AKT1 (Homo sapiens (Human), UniProt P31749)
Chain of AKT1 (P31749 whole entry): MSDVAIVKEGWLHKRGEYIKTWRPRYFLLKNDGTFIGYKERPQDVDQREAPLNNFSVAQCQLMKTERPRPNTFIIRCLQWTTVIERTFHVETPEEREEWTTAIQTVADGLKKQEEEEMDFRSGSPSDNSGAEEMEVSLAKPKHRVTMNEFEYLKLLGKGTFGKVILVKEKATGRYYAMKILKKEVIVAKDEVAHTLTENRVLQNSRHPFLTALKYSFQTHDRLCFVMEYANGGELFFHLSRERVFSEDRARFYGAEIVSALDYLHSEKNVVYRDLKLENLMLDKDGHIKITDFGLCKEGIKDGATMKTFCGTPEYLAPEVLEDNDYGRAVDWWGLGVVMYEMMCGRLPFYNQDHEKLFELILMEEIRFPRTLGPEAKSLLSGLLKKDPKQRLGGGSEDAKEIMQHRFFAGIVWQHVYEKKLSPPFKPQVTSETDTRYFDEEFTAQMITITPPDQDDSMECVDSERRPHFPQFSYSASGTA
Description: as §1

PKCalpha = PKCalpha (Homo sapiens (Human), UniProt P17252)
Description: as §1

IGF-1R Activated = IGF-1R Activated (Homo sapiens (Human), UniProt P08069)
Description: as §1

EphA3 = EphA3 (Homo sapiens (Human), UniProt P29320)
Chain of EphA3 (P29320 21-983): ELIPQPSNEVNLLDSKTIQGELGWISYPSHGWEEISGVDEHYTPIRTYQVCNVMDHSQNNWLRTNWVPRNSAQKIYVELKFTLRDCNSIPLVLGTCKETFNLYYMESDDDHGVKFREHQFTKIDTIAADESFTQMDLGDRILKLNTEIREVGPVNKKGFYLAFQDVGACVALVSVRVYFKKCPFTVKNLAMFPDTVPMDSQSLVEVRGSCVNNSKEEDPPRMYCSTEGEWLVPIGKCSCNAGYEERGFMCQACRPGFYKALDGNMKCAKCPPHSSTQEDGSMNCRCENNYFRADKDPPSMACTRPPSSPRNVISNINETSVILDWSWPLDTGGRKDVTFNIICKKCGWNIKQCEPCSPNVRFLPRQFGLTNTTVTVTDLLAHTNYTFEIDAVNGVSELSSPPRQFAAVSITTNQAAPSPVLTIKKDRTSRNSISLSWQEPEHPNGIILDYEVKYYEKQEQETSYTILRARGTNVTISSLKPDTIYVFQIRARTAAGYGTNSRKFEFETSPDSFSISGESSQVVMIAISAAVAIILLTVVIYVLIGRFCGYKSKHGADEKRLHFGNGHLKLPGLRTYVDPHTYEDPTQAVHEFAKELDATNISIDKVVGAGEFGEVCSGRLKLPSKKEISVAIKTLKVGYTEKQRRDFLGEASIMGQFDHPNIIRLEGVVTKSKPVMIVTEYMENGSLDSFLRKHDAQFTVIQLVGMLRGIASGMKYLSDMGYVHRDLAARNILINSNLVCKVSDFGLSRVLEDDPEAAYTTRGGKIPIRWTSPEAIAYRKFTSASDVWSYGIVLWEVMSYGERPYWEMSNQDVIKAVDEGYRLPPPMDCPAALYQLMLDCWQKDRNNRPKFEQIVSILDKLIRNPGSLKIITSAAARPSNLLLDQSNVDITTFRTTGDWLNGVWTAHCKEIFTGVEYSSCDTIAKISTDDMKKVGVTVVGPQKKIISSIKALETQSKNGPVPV
Description: as §1

IKKbeta = IKKbeta (Homo sapiens (Human), UniProt O14920)
Description: as §1

MLK1 = MLK1 (Homo sapiens (Human), UniProt P80192)
Chain of MLK1 (P80192 whole entry): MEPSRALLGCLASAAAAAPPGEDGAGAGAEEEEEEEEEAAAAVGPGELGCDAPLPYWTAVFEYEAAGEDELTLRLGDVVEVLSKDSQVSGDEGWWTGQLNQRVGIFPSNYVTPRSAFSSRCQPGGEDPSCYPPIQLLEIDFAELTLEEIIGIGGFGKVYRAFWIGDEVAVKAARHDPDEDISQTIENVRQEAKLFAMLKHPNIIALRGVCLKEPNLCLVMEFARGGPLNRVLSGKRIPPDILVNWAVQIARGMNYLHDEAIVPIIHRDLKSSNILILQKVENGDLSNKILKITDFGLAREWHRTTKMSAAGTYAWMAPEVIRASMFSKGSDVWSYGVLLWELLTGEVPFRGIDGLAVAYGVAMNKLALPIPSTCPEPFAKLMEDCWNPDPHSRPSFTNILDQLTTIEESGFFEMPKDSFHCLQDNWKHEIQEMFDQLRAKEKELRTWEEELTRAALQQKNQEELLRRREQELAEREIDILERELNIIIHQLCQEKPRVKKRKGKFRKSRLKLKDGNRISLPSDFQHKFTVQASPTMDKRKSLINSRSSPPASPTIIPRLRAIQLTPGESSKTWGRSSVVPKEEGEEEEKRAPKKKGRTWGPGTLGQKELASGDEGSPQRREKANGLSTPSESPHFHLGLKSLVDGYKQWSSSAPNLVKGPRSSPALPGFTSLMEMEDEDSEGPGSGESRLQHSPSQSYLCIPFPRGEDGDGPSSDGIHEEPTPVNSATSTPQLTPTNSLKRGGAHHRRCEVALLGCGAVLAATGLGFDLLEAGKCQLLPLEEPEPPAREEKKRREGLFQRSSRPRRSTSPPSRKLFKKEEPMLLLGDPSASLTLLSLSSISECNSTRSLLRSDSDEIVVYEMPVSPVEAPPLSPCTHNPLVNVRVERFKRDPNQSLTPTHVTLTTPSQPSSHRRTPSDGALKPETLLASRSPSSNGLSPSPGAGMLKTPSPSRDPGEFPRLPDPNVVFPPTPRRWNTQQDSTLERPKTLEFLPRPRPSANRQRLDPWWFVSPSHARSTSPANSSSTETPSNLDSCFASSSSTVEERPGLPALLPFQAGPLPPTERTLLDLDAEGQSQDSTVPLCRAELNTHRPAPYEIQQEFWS
Description: as §1

CK1gamma3 = CK1gamma3 (Homo sapiens (Human), UniProt Q9Y6M4)
Description: as §1

EphB1 = EphB1 (Homo sapiens (Human), UniProt P54762)
Description: as §1

ALK = ALK (Homo sapiens (Human), UniProt Q9UM73)
Description: as §1

PAK6 = PAK6 (Homo sapiens (Human), UniProt Q9NQU5)
Description: as §1

IR = IR (Homo sapiens (Human), UniProt P06213)
Description: as §1

CDK7/cyclinH/MAT1 = CDK7/cyclinH/MAT1 (Homo sapiens (Human), UniProt P50613)
Description: as §1

MAPKAP-K3 = MAPKAP-K3 (Homo sapiens (Human), UniProt Q16644)
Description: as §1

EphA1 = EphA1 (Homo sapiens (Human), UniProt P21709)
Description: as §1

CAMK1 = CAMK1 (Homo sapiens (Human), UniProt Q14012)
Description: as §1

CDK2/cyclinA = CDK2/cyclinA (Homo sapiens (Human), UniProt P24941)
Description: as §1

FGFR4 = FGFR4 (Homo sapiens (Human), UniProt P22455)
Description: as §1

Lyn = Lyn (Homo sapiens (Human), UniProt P07948)
Chain of Lyn (P07948 whole entry): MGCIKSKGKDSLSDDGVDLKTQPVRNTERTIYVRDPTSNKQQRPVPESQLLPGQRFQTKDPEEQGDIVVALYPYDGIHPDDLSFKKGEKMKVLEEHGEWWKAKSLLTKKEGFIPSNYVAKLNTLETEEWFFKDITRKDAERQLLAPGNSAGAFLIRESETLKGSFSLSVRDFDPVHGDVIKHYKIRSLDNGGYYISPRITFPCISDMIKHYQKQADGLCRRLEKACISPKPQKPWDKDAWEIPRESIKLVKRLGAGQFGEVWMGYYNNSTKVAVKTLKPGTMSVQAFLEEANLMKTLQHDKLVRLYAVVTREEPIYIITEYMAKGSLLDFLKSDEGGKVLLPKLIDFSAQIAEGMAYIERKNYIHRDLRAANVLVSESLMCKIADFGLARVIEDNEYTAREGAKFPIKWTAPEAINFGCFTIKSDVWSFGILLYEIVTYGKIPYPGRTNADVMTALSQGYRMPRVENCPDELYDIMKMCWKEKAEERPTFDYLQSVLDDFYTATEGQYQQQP
Description: as §1

PKCbetaI = PKCbetaI (Homo sapiens (Human), UniProt P05771)
Chain of PKCbetaI (P05771 whole entry): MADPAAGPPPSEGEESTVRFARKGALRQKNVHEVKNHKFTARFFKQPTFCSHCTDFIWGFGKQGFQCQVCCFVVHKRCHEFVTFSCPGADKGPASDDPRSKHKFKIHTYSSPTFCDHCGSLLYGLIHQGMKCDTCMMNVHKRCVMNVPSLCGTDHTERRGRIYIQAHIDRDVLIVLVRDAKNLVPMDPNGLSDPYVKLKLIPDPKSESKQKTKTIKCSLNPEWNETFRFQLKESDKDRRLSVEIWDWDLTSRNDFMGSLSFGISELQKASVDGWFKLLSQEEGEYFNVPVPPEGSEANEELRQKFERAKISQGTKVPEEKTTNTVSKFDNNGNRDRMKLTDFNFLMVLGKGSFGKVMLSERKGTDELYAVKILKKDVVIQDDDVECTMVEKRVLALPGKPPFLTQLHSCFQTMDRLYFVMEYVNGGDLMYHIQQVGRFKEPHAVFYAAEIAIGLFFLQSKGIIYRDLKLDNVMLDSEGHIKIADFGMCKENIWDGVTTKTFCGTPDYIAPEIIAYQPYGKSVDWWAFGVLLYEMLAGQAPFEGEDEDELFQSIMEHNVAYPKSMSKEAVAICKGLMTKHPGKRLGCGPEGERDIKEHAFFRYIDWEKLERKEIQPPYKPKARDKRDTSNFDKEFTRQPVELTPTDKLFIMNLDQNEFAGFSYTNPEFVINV
Description: as §1

DAPK3 = DAPK3 (Homo sapiens (Human), UniProt O43293)
Description: as §1

SGK2 = SGK2 (Homo sapiens (Human), UniProt Q9HBY8)
Description: as §1

NLK = NLK (Homo sapiens (Human), UniProt Q9UBE8)
Description: as §1

EGFR = EGFR (Homo sapiens (Human), UniProt P00533)
Description: as §1

MSK2 = MSK2 (Homo sapiens (Human), UniProt O75676)
Description: as §1

PTK6 = PTK6 (Homo sapiens (Human), UniProt Q13882)
Description: as §1

Pim-1 = Pim-1 (Homo sapiens (Human), UniProt P11309)
Chain of Pim-1 (P11309 whole entry): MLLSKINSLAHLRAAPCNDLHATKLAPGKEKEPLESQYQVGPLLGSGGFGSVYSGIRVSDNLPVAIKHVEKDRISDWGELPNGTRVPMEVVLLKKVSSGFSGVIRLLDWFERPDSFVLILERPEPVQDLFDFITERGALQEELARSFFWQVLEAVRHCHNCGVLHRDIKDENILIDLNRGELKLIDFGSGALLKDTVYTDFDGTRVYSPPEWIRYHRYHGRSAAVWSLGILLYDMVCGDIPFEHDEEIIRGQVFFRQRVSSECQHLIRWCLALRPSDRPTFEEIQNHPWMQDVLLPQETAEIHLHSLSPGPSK
Description: as §1

SMILES | Avg POC (ULK3) | Avg POC (KDR) | Avg POC (DDR2) | Avg POC (MST1) | Avg POC (PRK2) | Avg POC (CHK1) | Avg POC (Ret) | Avg POC (GRK5) | Avg POC (MKK6) | Avg POC (EphA2) | Avg POC (PDGFRbeta) | Avg POC (PAK2) | Avg POC (TrkA) | Avg POC (MRCKbeta) | Avg POC (AKT1) | Avg POC (PKCalpha) | Avg POC (IGF-1R Activated) | Avg POC (EphA3) | Avg POC (IKKbeta) | Avg POC (MLK1) | also measured
COCCN1C[C@@H](NC(=O)Nc2c(C)c(-c3ccnc(C)c3)nn2-c2ccccc2)[C@H](c2ccc(F)c(F)c2)C1 [Example 2, 1-((3S,4R)-4-(3,4-difluorophenyl)-1-(2-methoxyethyl)pyrrolidin-3-yl)-3-(4-methyl-3-(2-methylpyridin-4-yl)-1-phenyl-1H-pyrazol-5-yl)urea] | 100 POC | 116.5 POC | 100.5 POC | 94 POC | 105 POC | 114.5 POC | 106.5 POC | 103.5 POC | 106.5 POC | 110.5 POC | 108.5 POC | 95.5 POC | 0.5 POC | 105 POC | 109.5 POC | 96 POC | 102 POC | 101.5 POC | 87 POC | 103.5 POC | Avg POC (CK1gamma3): 87.5 POC; Avg POC (EphB1): 93.5 POC; Avg POC (ALK): 111 POC; Avg POC (PAK6): 106 POC; Avg POC (IR): 74.5 POC; Avg POC (CDK7/cyclinH/MAT1): 88 POC; Avg POC (MAPKAP-K3): 101.5 POC; Avg POC (EphA1): 97 POC; Avg POC (CAMK1): 107 POC; Avg POC (CDK2/cyclinA): 111 POC; Avg POC (FGFR4): 105.5 POC; Avg POC (Lyn): 112 POC; Avg POC (PKCbetaI): 95 POC; Avg POC (DAPK3): 107 POC; Avg POC (SGK2): 99 POC; Avg POC (NLK): 111.5 POC; Avg POC (EGFR): 105.5 POC; Avg POC (MSK2): 120 POC; Avg POC (PTK6): 101 POC; Avg POC (Pim-1): 99.5 POC
COCCN1C[C@@H](NC(=O)Nc2c(C)c(-c3cnc(C)nc3)nn2-c2ccccc2)[C@H](c2cc(F)cc(F)c2)C1 [Example 14, 1-((3S,4R)-4-(3,5-difluorophenyl)-1-(2-methoxyethyl)pyrrolidin-3-yl)-3-(4-methyl-3-(2-methylpyrimidin-5-yl)-1-phenyl-1H-pyrazol-5-yl)urea] | 98 POC | 99 POC | 96 POC | 97.5 POC | 106.5 POC | 104.5 POC | 84 POC | 91 POC | 99.5 POC | 96 POC | 120 POC | 92.5 POC | 1 POC | 98.5 POC | 98.5 POC | 93 POC | 106 POC | 106.5 POC | 99 POC | 102 POC | Avg POC (CK1gamma3): 95 POC; Avg POC (EphB1): 97.5 POC; Avg POC (ALK): 102.5 POC; Avg POC (PAK6): 102 POC; Avg POC (IR): 84 POC; Avg POC (CDK7/cyclinH/MAT1): 97.5 POC; Avg POC (MAPKAP-K3): 105.5 POC; Avg POC (EphA1): 99 POC; Avg POC (CAMK1): 103.5 POC; Avg POC (CDK2/cyclinA): 113.5 POC; Avg POC (FGFR4): 110 POC; Avg POC (Lyn): 105.5 POC; Avg POC (PKCbetaI): 101 POC; Avg POC (DAPK3): 105.5 POC; Avg POC (SGK2): 100 POC; Avg POC (NLK): 108.5 POC; Avg POC (EGFR): 96.5 POC; Avg POC (MSK2): 116 POC; Avg POC (PTK6): 108.5 POC; Avg POC (Pim-1): 103.5 POC
